Laboratory results as given in US7041785B1, “B1-bradykinin receptor antagonists and use thereof” (Université de Sherbrooke, priority 1996, dated 2006).
Non-standard residues stand in square brackets, D forms with d. Residues, ends and D or L forms follow the SMILES beside them. d2Nal = N[C@H](Cc1ccc2ccccc2c1)C(=O)O; dTic = O=C(O)[C@H]1Cc2ccccc2CN1; NMeA = CN[C@@H](C)C(=O)O

How the values were obtained:
[1] = system: T1, angiotensin-converting enzyme (ACE); assay: Metabolic degradation by purified angiotensin-converting enzyme, HPLC analysis; type: in vitro ADME, rabbit; conditions: rabbit, isolated enzyme ace, pH 7.5
T1 construct: purified angiotensin-converting enzyme (ACE) from rabbit lungs; purchased Sigma, St-Louis, Mo; host or cells: purified from rabbit lungs
Procedure: The metabolic stability of various kinin-related peptides was evaluated by incubating the peptide in the presence of purified angiotensin-converting enzyme (ACE) from rabbit lungs (purchased from Sigma, St-Louis, Mo.) dissolved in phosphate buffered saline (PBS) (50 mmol/L, pH 7.5 containing 300 mmoL/L NaCl); the final concentration of enzyme was 45 μg/mL. The experimental protocol for the measurement of ACE activity has been described elsewhere^15,16. Briefly, 200 μmol/L of peptides (40 μL) were placed in a PBS buffer and incubated for 5 min at 37EC before adding 8.5 μL of ACE (total volume of the reaction medium; 190 μL). Samples were withdrawn at 30 min intervals, immersed in boiling water for 5 min, then cooled on ice and centrifuged (5 min) before proceeding to analysis of peptides by high pressure liquid chromatography (HPLC). Results of ACE metabolism are expressed in percent of kinin degradation following the incubation (30 min) of kinin substrates with the enzyme.
Pure peptides and metabolic products were analysed by reverse-phas HPLC on a C18 μBondapak column (4.6 mm×25 cm) (Waters) of 10-μm particle size. The peptides and their fragments were eluted at the rate of 2.0 mL/min. with a linear gradient ranging from 5 to 65% of acetonitrile/TFA 0.05%/water over 20 min. at room temperature. The elution positions of these peptides were determined by following the absorbance at 214 nm. For each assay, 50 μL of the reaction medium (treated or not with ACE) were extracted and injected into the column. Concentrations of the peaks products, different from the peaks of the peptide substrate, were estimated using a computer software program (Baseline 810; Waters) that controlled also all the chromatography operations. Isolated metabolites and substrates were collected and identified by Electrospray mass spectrometry (positive mode).

B2 receptor [2] = biological target: T2, B2 receptor (Oryctolagus cuniculus, UniProt Q28642); conditions: vs BK; captopril 1 μmol/L; Inactive = no detectable antagonistic effect at ≦ 10 μg/ml
T2 sequence (Q28642 1-367): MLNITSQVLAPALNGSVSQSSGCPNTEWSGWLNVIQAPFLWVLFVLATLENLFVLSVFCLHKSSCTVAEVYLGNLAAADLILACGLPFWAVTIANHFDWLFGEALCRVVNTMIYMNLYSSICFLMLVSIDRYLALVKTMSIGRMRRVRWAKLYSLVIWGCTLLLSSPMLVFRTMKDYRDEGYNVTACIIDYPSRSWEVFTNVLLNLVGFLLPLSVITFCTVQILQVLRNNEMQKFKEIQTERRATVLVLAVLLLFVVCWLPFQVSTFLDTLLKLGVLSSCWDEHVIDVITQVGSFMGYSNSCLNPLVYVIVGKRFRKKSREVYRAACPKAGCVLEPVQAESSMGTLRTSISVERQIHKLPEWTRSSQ

B2 receptor [3] = biological target: T3, B2 receptor (Cavia porcellus, UniProt O70526); assay: cell-based; conditions: for G.P.I. pA2: vs BK, Inactive = no detectable antagonistic effect at ≦ 10 μg/ml, F.ag. full agonist, P.ag. partial agonist; for G.P.I. α^E: residual agonistic activity at 10 μg/mL in comparison with BK
T3 sequence (O70526 1-372): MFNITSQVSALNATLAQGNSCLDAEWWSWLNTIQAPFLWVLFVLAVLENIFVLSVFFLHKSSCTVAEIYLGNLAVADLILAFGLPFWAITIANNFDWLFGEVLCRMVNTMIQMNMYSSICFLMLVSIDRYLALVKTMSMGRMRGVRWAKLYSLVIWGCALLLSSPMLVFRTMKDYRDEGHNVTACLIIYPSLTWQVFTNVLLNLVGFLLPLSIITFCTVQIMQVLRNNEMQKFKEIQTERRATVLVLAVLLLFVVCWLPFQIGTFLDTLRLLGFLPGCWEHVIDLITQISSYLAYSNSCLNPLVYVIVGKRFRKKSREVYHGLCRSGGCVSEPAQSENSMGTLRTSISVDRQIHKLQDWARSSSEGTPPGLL
Excerpt: (§1) Tissues were taken from New Zealand white rabbits (1.5–2.5 kg) and Dunken Hartley guinea pigs (250–350 g) of either sex, killed by stunning and exsanguination. Umbilical cords were taken from healthy women 22–40 years old after spontaneous delivery at term. The rabbit jugular vein (RbJV), the guinea pig ileum (GPI), two preparations containing B2 receptors, the rabbit aorta (RbA) (B1 receptor) and the human umbilical vein (HUV), a mixed preparation containing both B1 and B2 receptors^10, were used. Helical strips of RbJV treated with 1 μmol/L of captopril to avoid peptide degradation by the angiotensin-converting enzyme (ACE), alias kininase II were prepared according to Gaudreau et al.^11 Helical strips of RbA devoid of endothelium were prepared according to Furchgott and Bhadrakom^12. Longitudinal segments of GPI were prepared with the procedure described by Rang^13. Helical strips of HUV were prepared according to Gobeil et al.^10. The tissues were suspended in 10-ml organ baths containing warm (37EC), oxygenated (95% O2–5% CO2) Krebs solution of the following composition in mmol/L; NaCl: 118.1; KCl: 4.7; CaCl26H2O: 2.5; KH2PO4: 1.2; MgSO47H2O: 1.18; NaHCO3: 25.0 and D-Glucose: 5.5. The RbA and the HUV were stretched with an initial tension of 2 g, whereas the RbJV and the GPI were loaded with 0.5 g. Changes of tension produced by the various agents were measured with Grass isometric transducers (model FT 03C, Grass Instrument Co., Quincy, Mass.). […] Before testing the drugs, the tissues were allowed to equilibrate for 60–120 min during which time the tissues were repeatedly washed and the tension readjusted every 15 min.
(§2) At the beginning of each experiment, a submaximal dose of bradykinin (BK) (9 nmol/L), was applied repeatedly on the RbJV, the GPI or the HUV to ensure that tissues responded with stable contractions. […] A similar protocol was used for the HUV.
(§3) Repeated applications of a singl and double concentration of BK (on RbJV, GPI and HUV) and of desArg^9BK (RbA and HUV) were made in the absence and in presence of the various peptides to evaluate their apparent affinities as antagonists, in terms of pA2 (-log10 of the molar concentration of antagonist that reduces the effect of a double concentration of agonist to that of a single one)^14. The antagonists were applied 10 min before measuring the myotropic effects of either BK (the B2 receptor agonist) or desArg^9BK (the B1 receptor agonist). […] All kinin antagonists were initially applied to tissues at concentration of 10 μg/mL to measure their potential agonistic activities (α^E) in comparison with BK (in the B2 receptor preparations) or desArg^9BK (in the B1 receptor preparations).

B1 receptor = biological target: T4, B1 receptor (Oryctolagus cuniculus, UniProt P48748); assay: cell-based; conditions: for Kb: Rb.A. pA2, apparent affinity as antagonist vs desArg9BK; for Rb.A. α^E: residual agonistic activity at 10 μg/mL in comparison with desArg9BK
T4 sequence (P48748 1-352): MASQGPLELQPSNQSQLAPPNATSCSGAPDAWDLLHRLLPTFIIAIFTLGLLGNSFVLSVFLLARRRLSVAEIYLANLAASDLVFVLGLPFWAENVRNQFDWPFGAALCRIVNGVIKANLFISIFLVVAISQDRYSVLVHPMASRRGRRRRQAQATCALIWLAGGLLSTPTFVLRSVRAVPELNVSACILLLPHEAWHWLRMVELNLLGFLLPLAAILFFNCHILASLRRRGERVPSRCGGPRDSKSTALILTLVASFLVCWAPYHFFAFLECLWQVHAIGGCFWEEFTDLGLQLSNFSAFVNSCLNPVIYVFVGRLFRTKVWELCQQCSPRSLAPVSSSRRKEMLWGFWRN
Excerpt: as §1, §2, §3

B2 receptor [4] = biological target: T2, B2 receptor; assay: cell-based; conditions: residual agonistic activity at 10 μg/mL in comparison with BK
Excerpt: as §1, §2, §3

[5] = antagonist applied 10 min before, Inactive = no detectable antagonistic effect at ≦ 10 μg/ml

| Rb.A. pA2 (B1 receptor; apparent affinity as antagonist vs desArg9BK, antagonist applied 10 min before, Inactive = no detectable antagonistic effect at ≦ 10 μg/ml) | Compound | metabolised at 0.5 h, 42.1 μmol/L [1] [%] | Rb.J.V. pA2 (B2 receptor [2]) | G.P.I. pA2 (B2 receptor [3]) | Kb (B1 receptor; [5]) [nM] | Kb (B2 receptor [3]) [nM] | G.P.I. α^E (B2 receptor [3]) | Rb.J.V. α^E (B2 receptor [4]) | Rb.A. α^E (B1 receptor) | metabolised at 0.5 h [1] [%] | EC50 (B2 receptor [3]) [nM] |
| --- | --- | --- | --- | --- | --- | --- | --- | --- | --- | --- | --- |
|  | CC(C)C[C@H](NC(=O)[C@@H]1CCCN1C(=O)[C@H](CO)NC(=O)[C@H](Cc1ccccc1)NC(=O)CNC(=O)[C@@H]1C[C@@H](O)CN1C(=O)[C@@H]1CCCN1C(=O)[C@H](CCCNC(=N)N)NC(=O)[C@@H](N)CCCCN)C(=O)O [Compound 3, Lys(Hyp^3, Leu^8)desArg^9BK] | 40 ± 3 | Inactive | Inactive | 6.92 |  |  |  |  |  |  |
|  | CC(C)C[C@H](NC(=O)[C@@H]1CCCN1C(=O)[C@H](CO)NC(=O)[C@H](Cc1ccccc1)NC(=O)CNC(=O)[C@@H]1C[C@@H](O)CN1C(=O)[C@@H]1CCCN1C(=O)[C@H](CCCNC(=N)N)NC(=O)[C@H](N)CCCNC(=N)N)C(=O)O [Compound 4, D-Arg(Hyp^3, Leu^8)desArg^9BK] | 83 ± 2 | Inactive |  | 339 | > 9550 |  |  |  |  |  |
|  | CC(=O)N[C@@H](CCCCN)C(=O)N[C@@H](CCCNC(=N)N)C(=O)N1CCC[C@H]1C(=O)N1C[C@H](O)C[C@H]1C(=O)NCC(=O)N[C@@H](Cc1ccccc1)C(=O)N[C@@H](CO)C(=O)N1CCC[C@H]1C(=O)N[C@@H](CC(C)C)C(=O)O [Compound 5, AcLys(Hyp^3, Leu^8)desArg^9BK] | 66 ± 1 | Inactive |  | 178 | > 9550 | 0.30 | 0.03 | 0 |  |  |
|  | CC(=O)N[C@@H](CCCCN)C(=O)N[C@@H](CCCNC(=N)N)C(=O)N1CCC[C@H]1C(=O)N1CCC[C@H]1C(=O)NCC(=O)N[C@@H](Cc1ccccc1)C(=O)N[C@@H](CO)C(=O)N1Cc2ccccc2C[C@@H]1C(=O)N[C@@H](CC(C)C)C(=O)O [Compound 11, AcLys(D-Tic^7, Leu^8)desArg^9BK] (Ac-KRPPGFS[dTic]L-OH; C-terminus assumed) |  | Inactive |  | 6760 |  |  | 0.37 | 0 | 0 | 1410 |
|  | CC(=O)N[C@@H](CCCCN)C(=O)N[C@@H](CCCNC(=N)N)C(=O)N1CCC[C@H]1C(=O)N1CCC[C@H]1C(=O)NCC(=O)N[C@@H](Cc1ccccc1)C(=O)N(C)[C@@H](C)C(=O)N1CCC[C@H]1C(=O)N[C@@H](CC(C)C)C(=O)O [Compound 21, AcLys(N-MeAla^6, Leu^8)desArg^9BK, reference compound] (Ac-KRPPGF[NMeA]PL-OH; C-terminus assumed) | 0 | Inactive | Inactive | 282 |  | 0.19 | 0 | 0.01 |  |  |
|  | CC[C@H](C)[C@H](NC(=O)[C@@H](Cc1ccc2ccccc2c1)NC(=O)[C@H](C)N(C)C(=O)[C@H](Cc1ccccc1)NC(=O)CNC(=O)[C@@H]1CCCN1C(=O)[C@@H]1CCCN1C(=O)[C@H](CCCNC(=N)N)NC(=O)[C@H](CCCCN)NC(C)=O)C(=O)O [Compound 22, AcLys(N-MeAla^6, D-βNal^7, IIe^8)desArg^9BK] (Ac-KRPPGF[NMeA][d2Nal]I-OH; C-terminus assumed) | 0 | Inactive | P.ag. | 537 |  |  | 0.03 | 0 |  |  |
| 7.94 ± 0.06 | D-Arg(Hyp^3, D-Hyp^7(trans propyl), Oic^8)desArg^9BK [Compound 33, reference compound] |  | 6.99 ± 0.04 |  |  |  | 0 | 0 | 0 |  |  |
